Measurements from US20100040679A1, “Compositions for Reducing Nicotine Withdrawal Symptoms and/or Tobacco Usage” (priority 2006, published 2010).

Assays:
nicotine dependent rats = assay: mecamylamine-precipitated nicotine abstinence signs in nicotine dependent rats; type: in vivo, Sprague-Dawley rats; conditions: 1 mg/kg subcutaneous; 30 minutes; FIG. 2
Description: A study was conducted to compare the effects of low doses of dextromethorphan (1 mg/kg) alone, cotinine (1 mg/kg) alone, and a dextromethorphan plus cotinine combination (1 mg/kg each) versus placebo (saline) for their effect on nicotine dependence. The subjects were 30 male Sprague-Dawley rats, weighing between 282-372 grams each. All subjects were implanted subcutaneously with an Alza 2ML1 osmotic minipump under aseptic conditions and halothane anesthesia.
All subjects were rendered nicotine dependent by seven days infusion with 9 mg/kg/day nicotine bitartrate (3.15 mg/kg expressed as the base) in saline from the subcutaneous minipump. On the 7th day of infusion, each subject received two subcutaneous injections. Group 1 (n=8) received two injections of saline vehicle only. Group 2 (n=7) received a subcutaneous injection of saline and an subcutaneous injection of 1 mg/kg cotinine in saline. Group 3 (n=8) received a subcutaneous injection of saline and a subcutaneous injection of 1 mg/kg dextromethorphan. Group 4 (n=7) received a subcutaneous injection of 1 mg/kg cotinine and 1 mg/kg dextromethorphan. […] These low doses were intended to prevent any ceiling effect which may have masked the benefit of adding a second medication. The injection volumes in every case were […]. […]

[1] = test system: mecamylamine-precipitated nicotine withdrawal syndrome; assay: previous study of mecamylamine-precipitated nicotine withdrawal syndrome; type: in vivo; conditions: dose 1 mg/kg, given alone
Description: All subjects were rendered nicotine dependent by seven days infusion with 9 mg/kg/day nicotine bitartrate (3.15 mg/kg expressed as the base) in saline from the subcutaneous minipump. On the 7th day of infusion, each subject received two subcutaneous injections. Group 1 (n=8) received two injections of saline vehicle only. Group 2 (n=7) received a subcutaneous injection of saline and an subcutaneous injection of 1 mg/kg cotinine in saline. Group 3 (n=8) received a subcutaneous injection of saline and a subcutaneous injection of 1 mg/kg dextromethorphan. Group 4 (n=7) received a subcutaneous injection of 1 mg/kg cotinine and 1 mg/kg dextromethorphan. […] These low doses were intended to prevent any ceiling effect which may have masked the benefit of adding a second medication. The injection volumes in every case were 1 mg/kg.

[2] = rat brain after peripheral nicotine administration; Dwoskin et al 1999; cited from earlier work
[3] = humans; estimated by Benowitz 1983; cited from earlier work

SMILES | Miscellaneous Less-Frequent Signs (category of nicotine abstinence signs) (nicotine dependent rats) | effects in reducing mecamylamine-precipitated nicotine withdrawal syndrome [1] | abundance as nicotine metabolite in brain [2] | systemically absorbed nicotine metabolized to cotinine [3]
CN1C(=O)CC[C@H]1c1cccnc1 [cotinine] | tied for lowest | only minimal effects | most abundant metabolite in rat brain | 
COc1ccc2c(c1)[C@]13CCCC[C@@H]1[C@H](C2)N(C)CC3 [dextromethorphan, reference compound] |  | only minimal effects |  | 
CN1CCCC1c1cccnc1 (centres unmarked) [nicotine] |  |  |  | 86%
